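In this assay, cells in 96-well plates receive the compound at five concentrations for 48 hours. Endpoints are linearly interpolated between the surrounding concentrations. GI50 marks 50% less growth. At the TGI there is no net growth.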
Experiments:
Assay in all cases: inhibition of tumour cell growth, NCI panel, 48 h
SF-268 CNS = system: SF-268 CNS
A549 NSCLC = system: A549 NSCLC
HT29 colon = system: HT29 colon
OVCAR-8 ovarian = system: OVCAR-8 ovarian
HOP-92 NSCLC = system: HOP-92 NSCLC
HS 578T breast = system: HS 578T breast
SK-MEL-2 melanoma = system: SK-MEL-2 melanoma
SF-295 CNS = system: SF-295 CNS
SF-539 CNS = system: SF-539 CNS
NCI-H460 lung = system: NCI-H460 lung

Row | SMILES | TGI (SF-268 CNS) [µM] | TGI (A549 NSCLC) [µM] | TGI (HT29 colon) [µM] | TGI (OVCAR-8 ovarian) [µM] | TGI (HOP-92 NSCLC) [µM] | TGI (HS 578T breast) [µM] | TGI (SK-MEL-2 melanoma) [µM] | TGI (SF-295 CNS) [µM] | TGI (SF-539 CNS) [µM] | TGI (NCI-H460 lung) [µM] | GI50 (SF-268 CNS) [µM] | GI50 (HOP-92 NSCLC) [µM] | GI50 (SF-539 CNS) [µM]
1 | CC(=O)n1nc(-c2ccccc2)n(/N=C/c2ccc([N+](=O)[O-])o2)c1=O | 14.1 | 25 | 21.8 | 33.3 | 35.9 | 38 | 11.5 | 47.9 | 18.4 | 15.9 |  |  | 
2 | COP(=O)(OC)C(Nc1ccc(Cc2ccc(NC(c3ccco3)P(=O)(OC)OC)cc2)cc1)c1ccco1 (stereo not drawn) | > 100 | > 100 | > 100 | > 100 | 35.1 | > 100 | 35.7 | 82.2 | 16.2 | > 100 |  |  | 
3 | CC1=NNC(=O)C1C1CC(c2c[nH]c3ccccc23)=NN=C1Cl (stereo not drawn) | > 100 | > 100 | > 100 | > 100 | > 100 | > 100 | > 100 | > 100 | > 100 | > 100 |  |  | 
4 | CCN1C(=O)C(=C/C=C/c2ccc(N(CC)CC)cc2)C(=O)N(CC)C1=S | > 100 | > 100 | > 100 | > 100 | > 100 | > 100 | > 100 | > 100 | > 100 | > 100 |  |  | 
5 | CN(C)CCCNC(=O)c1c(O)c2ccccc2n(C)c1=O | > 100 | > 100 | > 100 | > 100 | 80.7 | > 100 | > 100 | > 100 | > 100 | > 100 |  |  | 
6 | CC(C)N1CN(c2ccccc2)C2(CCN(CCCC(=O)c3ccc(F)cc3)CC2)C1=O | > 63.4 | > 100 | 7.85 | > 82 | 16.6 | 49.1 | 28.3 | 26.9 | 22.1 | 54.2 |  |  | 
7 | C(=C\c1ccccc1)/COc1ccccc1C(N1CCOCC1)n1nc2ccccc2n1 (stereo not drawn) | 28.5 | > 89.2 | 10.7 | 14 | 21.9 | 41.2 | 24.2 | 28.7 | 6.62 | > 51.3 |  |  | 
8 | Nc1ccc(-c2nn3c(COc4ccc(Cl)cc4)nnc3s2)cc1 | > 100 | > 100 | > 100 | > 100 | > 100 | > 100 | > 100 | > 100 | > 100 | > 100 | 46.8 | 98 | 34.5
9 | Cc1cc(NS(=O)(=O)c2ccc(NC(NC(=O)C(C(F)(F)F)C(F)(F)F)(C(F)(F)F)C(F)(F)F)cc2)no1 | > 100 | > 100 | > 100 | > 100 | > 100 | > 100 | > 100 | > 100 | > 100 | > 100 |  |  | 
10 | Cc1cc(O)c(-c2cc(O)c(C)cc2O)cc1O | 37.8 | 49.5 | > 53.1 | 16.7 | 6.22 | > 72.2 | 33 | 31.2 | 9.35 | 39.8 |  |  | 
11 | COC1C(O)C(O[C@H]2CC[C@@]3(C)C(CC[C@@H]4[C@@H]3CC[C@]3(C)[C@@H](C(C)OC5OC(CO)C(O)C(O)C5O)CC[C@]43O)C2)OC(C)C1OC1OC(CO)C(O)C(O)C1O (stereo partly drawn) | > 100 | > 100 | > 100 | > 100 | > 100 | > 100 | > 100 | > 100 | > 100 | > 100 |  |  | 
12 | Cc1c(-c2ccccc2)[nH]n(C2=NCCN2)c1=O | > 100 | > 100 | > 100 | > 100 | > 100 | > 100 | > 100 | > 100 | > 100 | > 100 |  |  | 
13 | O=C1C(C(O)(C(F)(F)F)C(F)(F)F)CCC1C(O)(C(F)(F)F)C(F)(F)F (stereo not drawn) | > 100 | > 65.4 | > 29.3 | > 83.6 | 0.245 | 51.9 | 11 | 21 | > 43.5 | > 100 |  |  | 
14 | O=S1SC(=S)C2C=CC=CC21 (stereo not drawn) | > 100 | > 100 | > 100 | > 100 | > 100 | > 100 | > 100 | > 100 | > 100 | > 100 |  |  | 
15 | O=C1c2cccc(O)c2C(=O)c2c(OC3OC(CO)C(O)C(O)C3O)cccc21 (stereo not drawn) | 67.6 | > 100 | > 100 | > 100 | > 100 | 58.1 | > 100 | > 100 | 58.1 | 59 |  |  | 
16 | CCNc1ncnc2sc(SCc3ccccc3)nc12 | > 100 | > 100 | > 100 | > 100 | 81 | > 100 | > 100 | > 100 | > 100 | > 100 |  |  | 
17 | Clc1ccc(/C(=C\c2ccccc2)Cn2ccnc2)cc1 | 53.4 | 49.4 | 30.1 | 33.4 | 39.4 | > 100 | 30.3 | 49.4 | 31.5 | 44.8 |  |  | 
18 | COc1nc2c(N3CCCC3)nc(N3CCNCC3)nc2nc1NCc1ccccc1 | 5 | 5.34 | 4.65 | 10.7 | 5.2 | 5.14 | 3.11 | 3.35 | 3.21 | 4.91 |  |  | 
19 | CCOC(=O)C1=CC(C)(C(=O)OCC)Nc2c(nc(N)[nH]c2=O)N1 (stereo not drawn) | > 10 | > 10 | > 10 | > 10 | > 10 | > 10 | > 10 | > 10 | > 10 | > 10 |  |  | 
20 | COc1ccc([C@H]2C=[N+]([O-])O[C@H](OC3CCCC3)[C@@H]2OC(C)=O)cc1OC | > 100 | > 100 | 54.7 | 62.2 | 32.9 | 78.5 | > 100 | > 100 | 38 | > 100 |  |  | 
